In patent publication US11253592B2, “Water-soluble compounds with aggregation-induced emission characteristics” (THE HONG KONG UNIVERSITY OF SCIENCE AND TECHNOLOGY, priority 2017, dated 2022):

Experiments:
[1] = tested on: HeLa cells; assay: Photostability under continuous laser irradiation in stained cells; format: cell-based; conditions: 15 min continuous laser irradiation, λex 488 nm
Procedure: For photostability studies, TTVP-labelled HeLa cells were imaged by a confocal microscope (Zeiss laser scanning confocal microscope LSM7 DUO) using ZEN 2009 software (Carl Zeiss). Conditions: for TTVP, excitation wavelength: 488 nm; for DiO, excitation wavelength: 488 nm (5% laser power).
The specificity of TTVP to plasma membrane was evaluated by co-staining with DiO, which is a commercially available bioprobe for plasma membrane. In this co-localization experiment, after incubating HeLa cells with DiO for 10 min, TTVP was added into the culture followed by culture shaking for a few seconds at room temperature. In order to accommodate the staining protocol of DiO, postwashing after cell staining was carried out. As shown in FIGS. 9A-9H, TTVP can selectively accumulate in the plasma membrane and emit strong red fluorescence. The well-merged images of TTVP and DiO indicate the high specificity of the compounds to the plasma membrane, and the Pearson's correlation coefficient is determined to be 89%. To assess the photostability of TTVP and DiO, continuous excitation and sequential scanning with confocal microscope were utilized.

[2] = tested on: HeLa cells; assay: MTT cytotoxicity under white light irradiation (PDT); format: cell-based; conditions: white light irradiation (around 10 mW) 10 min
Procedure: For cytotoxicity studies relating to cytotoxicity of the present compounds to cancer cells under light irradiation, HeLa cells were seeded in 96-well plates (Costar, IL, USA) at a density of 6000-8000 cells/well. After overnight culturing, medium in each well were replaced by 100 μL fresh medium containing different concentrations of TTVP. After incubation for 3 s, plates containing HeLa cells were exposed to white light (around 10 mW) for 10 min, and another array of plates with cells were kept in dark as control. Then the plates were subjected to the same treatment as the biocompatibility test.
(§1) Effective ROS generation of the present compounds in PDT applications was quantitatively evaluated on HeLa cells by a standard MTT assay. A dose-dependent toxicity was determined in both the absence and presence of white light irradiation. […] In comparison, HeLa cells retained 90% viability when they were incubated with 1 μM of TTVP in dark conditions. Furthermore, flow cytometric analysis using Annexin V-FITC/propidium iodide (PI) double staining was utilized to determine cell apoptosis (FIGS. 11C and 11D). […]

[3] = tested on: HeLa cells; assay: Flow cytometry Annexin V-FITC/PI double staining for apoptosis and necrosis; format: cell-based; conditions: 500 nM
Procedure: Effective ROS generation of the present compounds in PDT applications was quantitatively evaluated on HeLa cells by a standard MTT assay. A dose-dependent toxicity was determined in both the absence and presence of white light irradiation. […] In comparison, HeLa cells retained 90% viability when they were incubated with 1 μM of TTVP in dark conditions. Furthermore, flow cytometric analysis using Annexin V-FITC/propidium iodide (PI) double staining was utilized to determine cell apoptosis (FIGS. 11C and 11D). […] It is worth noting that continuous light irradiation with strong power (around 18.5 times higher than that for cell imaging depicted in FIGS. 6A-6H and FIGS. 8A-8H) led to some changes of cells, for instance, TTVP can gradually enter the cells (FIGS. 11E-11I); the cell membrane morphology changed, and the formation of blebs on the plasma membrane was clearly observed, which is a sign of cell death. Those changes can be attributed to the fact that the ROS generated from TTVP considerably disrupts the rigidity and permeability of plasma membrane, and induces cancer cell death. FIGS. 12A, 12B, 12C, 12D, and 12E depict bright-field confocal images of HeLa cell stained with TTVP upon the increase of irradiation time. λex: 488 nm (20% laser power, 0.925 μW).

[4] = DLS analysis of nanoaggregates in water/THF; format: physicochemical; conditions: suspension with 90% fraction of THF
Procedure: (§2) Dynamic light scattering analysis (DLS) and transmission electron microscope (TEM) measurements were performed to confirm the formation of aggregates upon the addition of THF into the TTVP aqueous solution. […] In the solid state, TTVP emitted at 705 nm with 2.7% of quantum yield and 0.92 ns of lifetime (FIGS. 4-5, Table 1).

[5] = Water solubility; format: physicochemical
Description: (§3) TTVP benefits from its positively charged amine and pyridinium salt having hydrophilic characteristic, as well as the small size of the hydrophobic moiety. […] The relatively long absorption wavelength can be attributed to its small HOMO-LOMO energy gap, which is caused by the strong electron donating-accepting interaction of the emitting center (FIGS. 3A-3C).

[6] = tested on: plasma membrane of living HeLa cells; assay: Plasma membrane cell imaging by confocal microscopy; format: cell-based
Procedure: (§4) For cell imaging, cells were grown in a 35 mm Petri dish with a coverslip at 37° C. The live cells were incubated with a certain dye at a certain concentration for a certain time. After adding TTVP (500 nM), the Petri dish was shaken for a few seconds at room temperature, then the coverslip was removed. The TTVP-labelled cells were mounted and imaged using a laser scanning confocal microscope (LSM7 DUO) at 512 nm with 5% laser power (the scanning rate was 22.4 s per frame). The emission filter was 600-744 nm.
As a water-soluble NIR-emissive AIEgen, TTVP maintains an “off” state in an aqueous environment. As such, TTVP can serve as a “light-up” probe for bioimaging with minimal background interference from both free dyes and bio-substrate autofluorescence. In preliminary bioimaging experiments, cell imaging studies were conducted using HeLa cells as a cell model, and incubating 500 nM of TTVP for 10 min. […] The influence of incubation period was then investigated by utilizing a wash-free procedure with different staining times. […] The plasma membrane-staining ability of TTVP can be mainly attributed to its good hydrophilicity, which impedes the permeation of TTVP passing through the hydrophobic region of phospholipid bilayers. It is believed that the emitting moiety of TTVP is embedded within the hydrophobic region with low polarity, evidently giving fluorescent emission upon irradiation according to the restriction of intramolecular motions (RIM) mechanism of the AIE process (FIG. 6G). […] Additionally, ultrafast staining could result from the excellent monodispersity of TTVP in culture media of cells.

[7] = tested on: MDCK2 cells; assay: Ultrafast wash-free plasma membrane imaging; format: cell-based; conditions: 500 nM, around 3 s
Procedure: as §4
(§5) Encouraged by the distinct advantages of TTVP for membrane-specific imaging, this ultrafast staining and wash-free cellular imaging protocol was further employed for staining other cell lines, including 293T, HCC827, HCT116, and MDCK2.

[8] = tested on: HCC827 cells; assay: Ultrafast wash-free plasma membrane imaging; format: cell-based; conditions: 500 nM, around 3 s
Procedure: as §4, §5

[9] = tested on: 293T cells; assay: Ultrafast wash-free plasma membrane imaging; format: cell-based; conditions: 500 nM, around 3 s
Procedure: as §4, §5

[10] = tested on: HCT116 cells; assay: Ultrafast wash-free plasma membrane imaging; format: cell-based; conditions: 500 nM, around 3 s
Procedure: as §4, §5

[11] = Photophysical (optical) properties of TTVP; format: physicochemical
Procedure: H spectra were measured on Bruker ARX 400 NMR spectrometers using CD3OD as the deuterated solvent. High-resolution mass spectra (HRMS) were recorded on a Finnegan MAT TSQ 7000 Mass Spectrometer System operating in a MALDI-TOF mode. UV absorption spectra were taken on a Milton Ray Spectronic 3000 array spectrophotometer. Steady-state fluorescence spectra were recorded on a Perkin Elmer LS 55 spectrometer. Fluorescence images were collected on Olympus BX 41 fluorescence microscope. Laser confocal scanning microscope images were collected on Zeiss laser scanning confocal microscope (LSM7 DUO) and analyzed using ZEN 2009 software (Carl Zeiss).
as §3, §2

[12] = tested on: HeLa cells; assay: MTT cytotoxicity in dark conditions (biocompatibility); format: cell-based
Procedure: For cytotoxicity studies relating to biocompatibility of the present compounds to Hela cells, MTT assays were used to evaluate the cytotoxicity of the presented AIEgens. Cells were seeded in 96-well plates (Costar, IL, USA) at a density of 6000-8000 cells/well. After overnight culturing, medium in each well were replaced by 100 μL fresh medium containing different concentrations of TTVP. 24 hours later, 10 μL MTT solution (5 mg/mL in PBS) was added into each well. After 4 hours of incubation, 100 μL SDS-HCl aqueous solution (10% SDS and 0.01 M HCl) was added to each well. After incubation for 4 hours, the absorption of each well at 595 nm was recorded via a plate reader (Perkin-Elmer Victor3™). Each trial was performed with 6 wells parallel.
as §1

[13] = ROS generation with H2DCF-DA indicator under white light; conditions: 10 μM TTVP, 5 μM H2DCF-DA in PBS, white light 10 mW, within 60 s
Description: The strong absorption of TTVP in the visible light region permits utilization of visible light as the excitation light source for PDT processes. Visible light causes less damage to biological systems than UV light. The ROS generation efficiency of TTVP was initially determined by the use of H2DCF-DA as an indicator, which emits fluorescence with a “turn on” process triggered by ROS. As depicted in FIG. 11A, TTVP or H2DCF-DA alone was non-emissive or weekly emissive, and each fluorescence intensity remained almost constant within 60 s white light irradiation. […] The efficient ROS generation of TTVP could be attributed to both its small singlet-triplet energy gap (0.47 eV) and excellent monodispersity. The former favors the improvement of the yield of the triplet excited state, and the latter can enlarge contact area between TTVP and oxygen.

CCCCCCCCCCCCCCCCCCN1/C(=C\C=C\c2oc3ccccc3[n+]2CCCCCCCCCCCCCCCCCC)Oc2ccccc21.[O-][Cl+3]([O-])([O-])[O-] [DiO, reference compound]
change of emission intensity on irradiation (photostability) [1]: fluorescence loss of DiO was very obvious

C[N+](C)(C)CCC[n+]1ccc(/C=C/c2ccc(-c3ccc(N(c4ccccc4)c4ccccc4)cc3)s2)cc1 [TTVP]
cell death ([2]; 1 μM): almost complete cell death
viability at 0.5 µM ([2]; Homo sapiens, HeLa, light or radiation study, 10 min, 500 nM, read-out: cell viability): 15%
cell necrosis on light irradiation [3]: caused cancer cell necrosis in a short period of time
average hydrodynamic diameter of nanoaggregates [4]: around 43 nm
polydispersity index [4]: 0.13
change of emission intensity on irradiation (photostability) [1]: slightly decreased
water solubility [5]: good water solubility
plasma membrane visualization ([6]; 500 nM, 10 min incubation, with or without washing): clearly visualized with excellent image contrast
plasma membrane staining ([6]; 500 nM, shaking a few seconds at room temperature, wash-free): lit up significantly
cellular localization after long staining ([6]; 500 nM, staining for 6 hours): A majority of TTVP entered the cells
plasma membrane visualization ([6]; 500 nM, staining time 4 h): still be clearly visualized
maximum emission of stained living cells ([6]; living HeLa cells stained with TTVP): 623 nm
plasma membrane visualization [7]: clearly visualized
plasma membrane visualization [8]: clearly visualized
plasma membrane visualization [9]: clearly visualized
plasma membrane visualization [10]: clearly visualized
λem (nm) Aggr, maximum emission in aggregated state ([11]; aggregated state, water/THF mixture): 708 nm
ε, molar extinction coefficient ([11]; aqueous solution, at 515 nm): 33517 M⁻¹ cm⁻¹
λabs (nm), absorption maximum ([11]; aqueous solutions): 515 nm
λem (nm) Solid, emission maximum in solid state ([11]; solid state): 705 nm
τ, fluorescence lifetime ([11]; solid state, ambient conditions): 0.92 ns
ΦF, fluorescence quantum yield ([11]; solid state, calibrated integrating sphere): 2.7%
cytotoxicity in dark conditions [12]: low cytotoxicity
cell viability ([12]; 1 μM): 90%
enhancement of H2DCF-DA emission intensity (ROS generation) [13]: 87 fold
